Measurements taken from US20250127913A1, “BIFUNCTIONAL FOLATE RECEPTOR BINDING COMPOUNDS” (LYCIA THERAPEUTICS, INC., priority 2021, published 2025).
Where two headings read alike, the source gives them in different places.

Key:
[1] = molecular target: TNFα trimer (Homo sapiens, UniProt P01375); assay: SPR binding kinetics of compounds to TNFα trimer; details: for Kd: class symbols; for koff: read-out: kd
Procedure: Streptavidin 100 μg/mL Streptavidin (Invitrogen Cat #: 434302) diluted in 10 mM sodium acetate, pH 4.5) was immobilized to both the reference and active surfaces as described in Example 51. The surfaces were conditioned with three injections of running Buffer (10 mM HEPES, 150 mMNaCl, 0.05% T20, pH 7.5, 2% DMSO) at a flow rate of 10 μL/min, Contact time: 60 s. Flow rate: 10 μL/min. The active surface was treated with biotinylated linked TNFα trimer 20 μg/mL diluted in running buffer at a flow rate of 5 μL/min contact time: 600 s, yielding a final response of ˜3000 RU. Example compounds were then serially diluted 1:1 in running buffer (10 mM HEPES, 150 mM NaCl, 0.05% T20, pH 7.5, 2% DMSO) from 30 uM to 937.5 nM and flowed over the active and reference surfaces from lowest concentration to greatest concentration in the single-cycle kinetics format, and then allowed to dissociate in running buffer for 7200 s, at 30 μL/min. Sensorgrams were solvent corrected, double-referenced, and the data fitted and analyzed in Biacore Insight Evaluation Software Version 3.0.11.15423.

[2] = molecular target: FOLR2 (Homo sapiens (Human), UniProt P14207); assay: SPR binding kinetics of compounds to folate receptor (FOLR2 immobilized on CM5 chip)
Sequence of FOLR2 (P14207 17-255): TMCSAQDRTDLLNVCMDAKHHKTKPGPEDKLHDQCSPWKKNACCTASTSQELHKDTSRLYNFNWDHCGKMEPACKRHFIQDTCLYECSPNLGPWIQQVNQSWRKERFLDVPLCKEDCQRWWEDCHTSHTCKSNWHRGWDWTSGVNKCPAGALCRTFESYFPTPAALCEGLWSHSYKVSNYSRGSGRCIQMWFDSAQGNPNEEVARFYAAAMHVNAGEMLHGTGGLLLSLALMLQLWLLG
Procedure: A Biacore 8K+ was used to measure the association and dissociation rates of example compounds to FOLR2 (Acro Biosystems, Cat: F02-H5223-100 μg). Briefly, FOLR2 was reconstituted according to the manufacture's instructions to 200 μg/mL. Both the active and reference surfaces of a Cytiva CM5 Series S Sensor Chip were activated with a 1:1 mixture of 400 mM EDC and 100 mM NHS for 420 s at 10 μL/min. 25 μg/mL FOLR2 diluted in Sodium Acetate pH 5.5 was injected on the active channel (Flow Cell 2) for 420 s at 10p/min. Both the reference and active surfaces were then capped with 1M ethanolamine, pH 8.5 for 420 s, achieving an immobilization level of ˜4200 RU. Example compounds were serially diluted 1:1 in running buffer (10 mM HEPES, 150 mM NaCl, 0.05% T20, pH 7.5, 2% DMSO) from 100 nM to 3.125 nM and flowed over the active and reference surfaces for 120 s, and then allowed to dissociate in running buffer for 600 s, at 30 uL/min. The FOLR2 immobilized active surface and the reference surface were regenerated with a 30 s pulse of Sodium Acetate pH 5.5 at 30 μL/min. Sensorgrams were solvent corrected, double-referenced, and the data fitted and analyzed in Biacore Insight Evaluation Software Version 3.0.11.15423.

[3] = test system: THP-1 cells; assay: Compound mediated uptake of TNFα-pHrodo in THP-1 cells (flow cytometry); format: cell-based; design: key to Uptake in THP1 cells (run) 2 / Uptake in THP1 cells (run) 3 / Uptake in THP1 cells (run) 4: + = ΔMFI less than that of I-17; ++ = ΔMFI ≈ to that of I-17; +++ = ΔMFI greater than that of I-17; details: ΔMFI compared with I-17, uptake at 10 μM
Procedure: THP-1 cells, a monocytic leukemia cell line that endogenously express folate receptor beta, were used as a model system to measure example compound stimulated uptake of in-house produced TNFα conjugated to the pH sensitive fluorescent dye pHrodo green (ThermoFisher Scientific #P35369).
THP-1 cells were maintained in RPMI (Gibco #61870143) with 10% v/v FBS (VWR #89510-188) with 2 mM L-alanyl-L-glutamine dipeptide, 100 units/ml penicillin and 100 μg/ml streptomycin (Gibco #15140148). Cells were pelleted, resuspended in folate-free RPMI (Gibco #27016021) and seeded at 50,000 cells per well of a 96 well plate. Example compound was added to each well as a log 2 dilution series ranging from 20 μM to 125 nM final concentration. Cells were incubated for 24 hrs and washed/resuspended in phosphate buffered saline (pH 7.4) with 1% w/v BSA. Uptake was measured using a Novocyte Advanteon Flow Cytometer (Agilent Technologies) with the […] and FITC detection configuration.

[4] = molecular target: folate receptor beta (Homo sapiens (Human), UniProt P14207); assay: Folate receptor binding assay (fluorescence polarization); details: 2.5 nM folate receptor beta, 2 nM FR-Cy probe, 2 hr incubation; read-out: FOLR2-FP
Sequence of folate receptor beta (P14207 17-255): as above
How it was run: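 Fluorescence polarization competition with 2 nM folate–Cy5 probe and 2.5 nM receptor in 20 mM Hepes pH 7.5, 250 mM NaCl, Tween-20, 1% DMSO; 3-fold dilutions, 2 h incubation, ex 620/em 688 nm. Duplicates normalized to DMSO (high) and 1 μM folic acid (low); IC50 from 4-parameter fit.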

[5] = molecular target: TNFα (Homo sapiens (Human), UniProt P01375); assay: TNFα binding assay (time-resolved FRET, biotinylated TNFα); details: 1 nM biotinylated TNFα, 80 nM probe, 16 hr incubation; read-out: TNF-HTRF-biotin
Sequence of TNFα (P01375 77-233): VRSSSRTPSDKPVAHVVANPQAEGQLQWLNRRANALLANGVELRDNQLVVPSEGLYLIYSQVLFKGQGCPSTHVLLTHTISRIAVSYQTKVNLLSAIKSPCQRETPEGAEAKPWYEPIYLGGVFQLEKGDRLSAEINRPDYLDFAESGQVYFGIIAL
How it was run: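 Time-resolved FRET displacement of 80 nM acceptor probe from 1 nM biotinylated TNFα with 0.5 nM streptavidin-Tb in 20 mM Hepes pH 7.5, 10 mM MgCl2, 0.015% Tween-20, 0.05 mg/ml BSA, 2% DMSO. Read (ex 340, em 490/520 nm) after 16 hr. Duplicate dose responses normalized to DMSO and 100 nM reference inhibitor; IC50 by 4-parameter fit.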

[6] = test system: THP-1 cells overexpressing FOLR2; assay: LYTAC mediated uptake of TNFα-Alexa647 in THP-1 WT / FOLR2 overexpressing cells (ΔMFI); format: cell-based; design: New-uptake 100 nM-% Example 46 / New-uptake 10 nm-% Example 46: unit not given here; details: relative to Example 46 as printed (I-92 = 1.00)
Procedure: Hetero-bifunctional small molecule LYTACs consisting of a TNFα binding moiety, linker and folate receptor binding moiety were tested to determine if folate receptor can internalize TNFα. THP-1 cells overexpressing FOLR2 were generated by stable transduction with lentivirus encoding FOLR2-IRES-GFP. THP-1 WT and FOLR2 overexpressing cells were maintained in RPMI (Gibco #61870143) with 10% v/v FBS (VWR #89510-188) with 2 mM L-alanyl-L-glutamine dipeptide, 100 units/ml penicillin and 100 μg/ml streptomycin (Gibco #27016021). Stable FOLR2 over-expression cells were mixed at a 50:50 ratio with WT THP-1 cells and seeded in a 96 well plate at 50,000 cells in 100 μl folate-free RPMI (Gibco […]) with 10% v/v FBS, 2 mM L-alanyl-L-glutamine dipeptide, 100 units/ml penicillin and 100 μg/ml streptomycin. In a separate 96 well plate, TNFα/folate hetero-bifunctional small molecules were mixed with unmodified TNFα conjugated with Alexa647 by non-specific lysine chemistry. Small molecule LYTACs at a concentration of 600 nM (2× final concentration) in 100 μl folate-free RPMI+10% FBS were incubated at room temperature for 30 mins. The immune complex was serially diluted 3-fold to produce a dose response range from 300 nM-0.137 nM (final concentration). The TNFα/LYTAC complex mixture was transferred to the plate containing a 50:50 mixture of THP1 WT and FOLR2 over expressing cells and incubated for 2 h at 37° C. with 5% C02. Uptake in WT and FOLR2 overexpressing cells was evaluated by flow cytometry by comparing the median fluorescence intensity of […] in the GFP negative (WT) and GFP positive (FOLR2) populations and was quantified as the difference between the mean fluorescence intensities in the APC channel for the GFP positive and GFP negative populations (ΔMFI).

Sequence of TNFα trimer (P01375 77-233 limits assumed): as the sequence (P01375 77-233) above

Compound | Kd [1] | koff [1] | Kd [2] | Uptake in THP1 cells (run) 2 [3] | Uptake in THP1 cells (run) 3 [3] | Uptake in THP1 cells (run) 4 [3] | IC50 [4] | IC50 [5] | New-uptake 10 nm-% Example 46 ([6]; 10 nM compound) | New-uptake 100 nM-% Example 46 ([6]; 100 nM compound) | koff ([1]; SPR single cycle kinetics, TNFalpha trimer immobilized)
Cc1nc2cc(F)c(-c3cnc(OCCCCCn4cc(COCCOCCNC(=O)CC[C@H](NC(=O)c5ccc(NCc6cnc7nc(N)nc(O)c7n6)cc5)C(=O)O)nn4)nc3)nc2c(N[C@H](C)c2cc(C#N)ccc2F)c1Cl [Compound I-16, N2-(4-(((2-amino-4-hydroxypteridin-6-yl)methyl)amino)benzoyl)-N5-(2-(2-((1-(5-((5-(7-chloro-8-((I-1-(5-cyano-2-fluorophenyl)ethyl)amino)-3-fluoro-6-methyl-1,5-naphthyridin-2-yl)pyrimidin-2-yl)oxy)pentyl)-1H-1,2,3-triazol-4-yl)methoxy)ethoxy)ethyl)-L-glutamine] | < 100 nM | 5.81e-05 s⁻¹ | 0.3 nM | +++ | +++ | ++ | – | – | – | – | –
Cc1nc2cc(F)c(-c3cnc(N4CCN(C(=O)COCCn5cc(CN(CCO)CCOCCOCCOCCNC(=O)CC[C@H](NC(=O)c6ccc(NCc7cnc8nc(N)nc(O)c8n7)cc6)c6nn[nH]n6)nn5)CC4)nc3)nc2c(N[C@H](C)c2cc(C#N)ccc2F)c1Cl [Compound I-80, 4-(((2-amino-4-hydroxypteridin-6-yl)methyl)amino)-N—((S)-3-((1-(2-(2-(4-(5-(7-chloro-8-(((R)-1-(5-cyano-2-fluorophenyl)ethyl)amino)-3-fluoro-6-methyl-1,5-naphthyridin-2-yl)pyrimidin-2-yl)piperazin-1-yl)-2-oxoethoxy)ethyl)-1H-1,2,3-triazol-4-yl)methyl)-1-hydroxy-16-oxo-19-(2H-tetrazol-5-yl)-6,9,12-trioxa-3,15-diazanonadecan-19-yl)benzamide] | – | – | – | – | – | – | 12 nM | 36 nM | 0.89 | 1.02 | –
Cc1nc2cc(F)c(-c3cnc(OCCCCCNC(=O)CC[C@H](NC(=O)c4ccc(NCc5cnc6nc(N)nc(O)c6n5)cc4)C(=O)O)nc3)nc2c(N[C@H](C)c2cc(C#N)ccc2F)c1Cl [Compound I-13, N2-(4-(((2-amino-4-hydroxypteridin-6-yl)methyl)amino)benzoyl)-N5-(5-((5-(7-chloro-8-(((R)-1-(5-cyano-2-fluorophenyl)ethyl)amino)-3-fluoro-6-methyl-1,5-naphthyridin-2-yl)pyrimidin-2-yl)oxy)pentyl)-L-glutamine] | < 100 nM | – | – | + | ++ | ++ | – | – | – | – | –
Nc1nc(O)c2nc(CNc3ccc(C(=O)N[C@@H](CCC(=O)NCCOCCOCCOCCOCc4cn(CCCCCOc5ccc(-c6ccc7nc(COc8cccc(N9CCCC9=O)c8)n(Cc8ccccc8OC(F)F)c7c6)cn5)nn4)C(=O)O)cc3)cnc2n1 [Compound I-25, (S)-18-(4-(((2-amino-4-hydroxypteridin-6-yl)methyl)amino)benzamido)-1-(1-(5-((5-(1-(2-(difluoromethoxy)benzyl)-2-((3-(2-oxopyrrolidin-1-yl)phenoxy)methyl)-1H-benzo[d]imidazol-6-yl)pyridin-2-yl)oxy)pentyl)-1H-1,2,3-triazol-4-yl)-15-oxo-2,5,8,11-tetraoxa-14-azanonadecan-19-oic acid] | < 100 nM | – | 0.5 nM | + | +++ | ++ | – | – | – | – | 3.65e-06 s⁻¹
Cc1nc2ccc(-c3cnc(OCCOCCn4cc(COCCOCCOCCOCCNC(=O)CC[C@H](NC(=O)c5ccc(NCc6cnc7nc(N)nc(O)c7n6)cc5)C(=O)O)nn4)nc3)cc2n1Cc1ccccc1OC(F)F [Compound I-24, (S)-18-(4-(((2-amino-4-hydroxypteridin-6-yl)methyl)amino)benzamido)-1-(1-(2-(2-((5-(1-(2-(difluoromethoxy)benzyl)-2-methyl-1H-benzo[d]imidazol-6-yl)pyrimidin-2-yl)oxy)ethoxy)ethyl)-1H-1,2,3-triazol-4-yl)-15-oxo-2,5,8,11-tetraoxa-14-azanonadecan-19-oic acid] | < 5000 nM | – | 0.4 nM | – | + | + | – | – | – | – | –
Cc1nc2ccc(-c3cnn(CCCCCCn4cc(COCCOCCOCCOCCNC(=O)CC[C@H](NC(=O)c5ccc(NCc6cnc7nc(N)nc(O)c7n6)cc5)C(=O)O)nn4)c3)cn2c1Cc1cc(Cl)ccc1Cl [Compound I-26, (S)-18-(4-(((2-amino-4-hydroxypteridin-6-yl)methyl)amino)benzamido)-1-(1-(6-(4-(3-(2,5-dichlorobenzyl)-2-methylimidazo[1,2-a]pyridin-6-yl)-1H-pyrazol-1-yl)hexyl)-1H-1,2,3-triazol-4-yl)-15-oxo-2,5,8,11-tetraoxa-14-azanonadecan-19-oic acid] | < 5000 nM | – | 0.2 nM | +++ | + | + | – | – | – | – | –
